Measured values reported in patent publication US6750228B1, “Aromatic sulfone hydroxamic acid metalloprotease inhibitor” (priority 1997, dated 2004).
Where a name gives a salt, the structure may show the parent alone. Read-outs that look alike come from different tables or passages of the source.

Assays:
Experiment in all cases: biochemical
[1] = biological target: T1, MMP-2 (Homo sapiens, UniProt P08253); conditions: read-out: MMP-2 IC50
T1 construct: made in house; provided by Dr. Gregory Goldberg, Washington University
T1 sequence (P08253 110-660): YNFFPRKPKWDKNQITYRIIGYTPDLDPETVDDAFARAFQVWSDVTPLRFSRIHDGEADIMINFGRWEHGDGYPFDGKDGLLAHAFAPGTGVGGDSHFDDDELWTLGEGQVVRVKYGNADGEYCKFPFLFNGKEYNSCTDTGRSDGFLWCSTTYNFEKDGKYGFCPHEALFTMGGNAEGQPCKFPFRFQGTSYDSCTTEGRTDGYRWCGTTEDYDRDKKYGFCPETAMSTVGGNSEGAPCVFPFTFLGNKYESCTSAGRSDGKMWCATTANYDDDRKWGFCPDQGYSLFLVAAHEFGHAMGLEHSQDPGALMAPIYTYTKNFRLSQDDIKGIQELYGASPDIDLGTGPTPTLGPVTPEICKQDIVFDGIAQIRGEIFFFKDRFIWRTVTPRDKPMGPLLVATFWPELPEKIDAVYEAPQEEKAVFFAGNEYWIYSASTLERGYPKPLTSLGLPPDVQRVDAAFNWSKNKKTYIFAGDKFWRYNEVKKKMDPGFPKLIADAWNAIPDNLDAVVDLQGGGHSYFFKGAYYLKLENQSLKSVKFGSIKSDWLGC
How it was run: (§1)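 Assay buffer 100 mM Tris-HCl, 100 mM NaCl, 10 mM CaCl2, pH 7.5. Activated MMP + inhibitor, 5 min RT; then methoxycoumarin peptide substrate, 4 μM final. Readout fluorescence; IC50 calculated.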

[2] = biological target: T2, MMP-13 (Homo sapiens, UniProt P45452); conditions: read-out: MMP-13 IC50
T2 construct: made in house; host or cells: baculovirus / insect cells
How it was run: as §1

[3] = biological target: T3, MMP-1 (Homo sapiens, UniProt P03956); conditions: read-out: MMP-1 IC50
T3 construct: made in house; host or cells: transfected HT-1080 cells (provided by Dr. Harold Welgus, Washington University)
T3 sequence (P03956 100-469): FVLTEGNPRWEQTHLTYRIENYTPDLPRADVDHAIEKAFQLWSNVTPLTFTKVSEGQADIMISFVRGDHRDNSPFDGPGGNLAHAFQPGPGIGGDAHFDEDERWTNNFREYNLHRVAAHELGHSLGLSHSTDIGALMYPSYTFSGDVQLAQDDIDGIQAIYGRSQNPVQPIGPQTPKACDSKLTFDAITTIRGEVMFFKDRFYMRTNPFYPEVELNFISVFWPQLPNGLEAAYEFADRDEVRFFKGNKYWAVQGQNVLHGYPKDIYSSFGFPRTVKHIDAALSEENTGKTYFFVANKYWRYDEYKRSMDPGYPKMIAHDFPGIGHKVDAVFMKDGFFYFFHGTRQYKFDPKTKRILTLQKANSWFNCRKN
How it was run: as §1

[4] = recombinant human MMP-2, MCA peptide substrate 4 μM, pH 7.5, room temperature
[5] = recombinant human MMP-13, MCA peptide substrate 4 μM, pH 7.5, room temperature
[6] = recombinant human MMP-1, MCA peptide substrate 4 μM, pH 7.5, room temperature

SMILES	IC50 [1, 4] [nM]	IC50 [2, 5] [nM]	IC50 [3, 6] [nM]	IC50 [1] [nM]	IC50 [2] [nM]	IC50 [3] [nM]
O=C(NO)C1(S(=O)(=O)c2ccc(N3CCC(OCc4ccc(F)cc4)CC3)cc2)CCN(C2CC2)CC1 [Example 397]	70	4.4	> 10000			
CC1CC(C)CN(C(=O)C2CCN(c3ccc(S(=O)(=O)C4(C(=O)NO)CCN(C(=O)CNCCO)CC4)cc3)CC2)C1 (stereo not drawn) [Example 286]	> 10000	60	> 10000			
CN(C)c1ccc(C(=O)C2CCN(c3ccc(S(=O)(=O)C4(C(=O)NO)CCOCC4)cc3)CC2)cc1 [Example 784]	4500	6	> 10000			
CC1CCCN(C(=O)C2CCN(c3ccc(S(=O)(=O)C4(C(=O)NO)CCOCC4)cc3)CC2)C1 (stereo not drawn) [Example 47]				6000	11.4	> 10000
O=C(NO)C1(S(=O)(=O)c2ccc(N3CCC(OCc4ccc(Br)cc4)CC3)cc2)CCOCC1 [Example 579]	100	2.7	> 10000			
Cc1ccc(C(=O)C2CCN(c3ccc(S(=O)(=O)C4(C(=O)NO)CCN(C5CC5)CC4)cc3)CC2)cc1C [Example 383]	700	3	> 10000			
C#CCN1CCC(C(=O)NO)(S(=O)(=O)c2ccc(Oc3ccc(OC(F)(F)F)cc3)cc2)CC1 [Example 349]	< 0.1	0.2	2600			
O=C(NO)C1(S(=O)(=O)c2ccc(N3CCC(CCOCc4cccc(C(F)(F)F)c4)CC3)cc2)CCOCC1 [Example 503]	50	10	> 10000			
O=C(Nc1ccc(C(F)(F)F)cc1)N1CCC(C(=O)NO)(S(=O)(=O)c2ccc(Oc3ccc(OC(F)(F)F)cc3)cc2)CC1 [Example 366]	2.5	13	> 10000			
COc1ccc(COC2CCC(Oc3ccc(S(=O)(=O)C4(C(=O)NO)CCOCC4)cc3)C2)cc1 (stereo not drawn) [Example 648]	110	25.8	> 10000			
O=C(c1ccco1)N1CCC(C(=O)NO)(S(=O)(=O)c2ccc(N3CCC(OCc4ccc(Cl)cc4)CC3)cc2)CC1 [Example 432]	100	13.9	> 10000			
CC1CC(C)CN(C(=O)C2CCN(c3ccc(S(=O)(=O)C4(C(=O)NO)CCN(C(=O)CN5CCN(C)CC5)CC4)cc3)CC2)C1 (stereo not drawn) [Example 288]	> 10000	35	> 10000			
C=Cc1ccc(C(=O)C2CCN(c3ccc(S(=O)(=O)C4(C(=O)NO)CCOCC4)cc3)CC2)cc1 [Example 787]	175	1.2	> 10000			
O=C(c1ccco1)N1CCC(C(=O)NO)(S(=O)(=O)c2ccc(N3CCC(OCc4ccc(F)cc4C(F)(F)F)CC3)cc2)CC1 [Example 434]	3700	190	> 10000			
O=C(NO)C1(S(=O)(=O)c2ccc(N3CCC(Sc4ccccc4)CC3)cc2)CCN(C2CC2)CC1 [Example 389]	16.1	1.7	> 10000			
O=C(CCCCN1CCOCC1)N1CCC(C(=O)NO)(S(=O)(=O)c2ccc(Oc3ccc(C(F)(F)F)cc3)cc2)CC1 [Example 335]	0.15	0.9	> 10000			
O=C(C1CCN(c2ccc(S(=O)(=O)C3(C(=O)NO)CCOCC3)cc2)CC1)N1CCN(c2ccc(C(F)(F)F)cc2[N+](=O)[O-])CC1 [Example 32]				800	10	> 10000
COc1ccc(C(=O)C2CCN(c3ccc(S(=O)(=O)C4(C(=O)NO)CCN(C5CC5)CC4)cc3)CC2)cc1 [Example 441]	420	6	> 10000			
O=C(CCCCN1CCCC1)N1CCC(C(=O)NO)(S(=O)(=O)c2ccc(Oc3ccc(C(F)(F)F)cc3)cc2)CC1 [Example 341]	0.2	0.6	> 10000			
O=C(CCc1cnc[nH]1)N1CCC(C(=O)NO)(S(=O)(=O)c2ccc(Oc3ccc(OC(F)(F)F)cc3)cc2)CC1 [Example 350]	< 0.1	0.1	6000			
COCCN1CCC(C(=O)NO)(S(=O)(=O)c2ccc(N3CCC(C(=O)Nc4ccc(OC(F)(F)F)cc4)CC3)cc2)CC1 [Example 248, N-Hydroxy-1-(2-methoxyethyl)-4-[[4-[4-[[[4-(trifluoromethoxy)phenyl]amino]carbonyl]-1-piperidinyl]-phenyl]sulfonyl]-4-piperidinecarboxamide, Monohydrochloride]	270	2.29	> 10000			

Further lines, with some results ahead:

IC50 [1, 4] [nM]	IC50 [2, 5] [nM]	IC50 [3, 6] [nM]	SMILES	IC50 [1] [nM]	IC50 [2] [nM]	IC50 [3] [nM]
1500	18.1	> 10000	O=C(NO)C1(S(=O)(=O)c2ccc(N3CCCN(S(=O)(=O)c4ccc(C(F)(F)F)cc4)CC3)cc2)CCOCC1 [Example 697]			
3.7	2.5	> 10000	CC(C)c1ccc(Oc2ccc(S(=O)(=O)C3(C(=O)NO)CCSCC3)cc2)cc1 [Example 148]			
15.5	4	> 10000	O=C(NO)C1(S(=O)(=O)c2ccc(N3CCN(c4ccc(F)cc4F)CC3)cc2)CCOCC1 [Example 87]			
3.7	4	> 10000	COc1ccc(OC2CCN(c3ccc(S(=O)(=O)C4(C(=O)NO)CCOCC4)cc3)CC2)cc1OC [Example 616]			
550	150	> 10000	O=C(NO)C1(S(=O)(=O)c2ccc(N3CCC(O)CC3)cc2)CCOCC1 [Example 564]			
25.8	2	> 10000	O=C(NO)C1(S(=O)(=O)c2ccc(OC3CCC(OCc4cccc(Cl)c4)C3)cc2)CCOCC1 (stereo not drawn) [Example 668]			
1.1	2.2	> 10000	CCCCc1ccc(OC2CCN(c3ccc(S(=O)(=O)C4(C(=O)NO)CCOCC4)cc3)CC2)cc1 [Example 642]			
190	2.4	> 10000	CCN(CC)Cc1ccc(COC2CCN(c3ccc(S(=O)(=O)C4(C(=O)NO)CCOCC4)cc3)CC2)cc1 [Example 523]			
306	16.4	> 10000	CC(C)CCOc1ccc(COC2CCN(c3ccc(S(=O)(=O)C4(C(=O)NO)CCOCC4)cc3)CC2)cc1 [Example 478]			
100	240	> 10000	O=C(NO)C1(S(=O)(=O)c2ccc(N3CCc4ccccc4C3)cc2)CCOCC1 [Example 484]			
0.7	0.5	> 10000	COCCN1CCN(CC(=O)N2CCC(C(=O)NO)(S(=O)(=O)c3ccc(Oc4ccc(C(F)(F)F)cc4)cc3)CC2)CC1 [Example 330]			
140	10	> 10000	COc1cccc(S(=O)(=O)N2CCN(c3ccc(S(=O)(=O)C4(C(=O)NO)CCOCC4)cc3)CC2)c1 [Example 696]			
200	16.9	> 10000	N#Cc1ccccc1-c1ccc(COC2CCN(c3ccc(S(=O)(=O)C4(C(=O)NO)CCOCC4)cc3)CC2)cc1 [Example 557]			
4400	67.4	> 10000	COCCN1CCC(C(=O)NO)(S(=O)(=O)c2ccc(N3CCC(C(=O)N(C)c4ccccc4)CC3)cc2)CC1 [Example 244, 1-[4-[[4-[(Hydroxyamino)carbonyl]-1-(2-methoxyethyl)-4-piperidinyl]-sulfonyl]phenyl]-N-methyl-N-phenyl-4-piperidinecarboxamide, Monohydrate]			
2300	190	> 10000	O=C(NO)C1(S(=O)(=O)c2ccc(N3CCC(OCc4ccccc4-c4ccccc4)CC3)cc2)CCOCC1 [Example 181]			
0.3	0.9	> 10000	COCCN(CCOC)CC(=O)N1CCC(C(=O)NO)(S(=O)(=O)c2ccc(Oc3ccc(C(F)(F)F)cc3)cc2)CC1 [Example 327]			
